Key:
M1 mAChR [1] = molecular target: T1, M1 mAChR (Homo sapiens, UniProt P11229); assay: Intracellular Ca2+ mobilization (Fluo-4 NW) in cells stably transfected with M1 mAChR; type: cell-based; design: expressed in transfected cells; settings: for activity at 100 µM: remaining carbachol-induced effect, read-out: Antagonist at 100 μM on M1 mAChR inhibiting carbachol-induced effects from 100% to; for Kd: read-out: Effects on M1 mAChR: antagonist, Kd; for M1 agonist at 100 μM vs. carbachol (full muscarinic agonist, 100%): mobilization of intracellular Ca ions
T1 sequence (P11229 1-460): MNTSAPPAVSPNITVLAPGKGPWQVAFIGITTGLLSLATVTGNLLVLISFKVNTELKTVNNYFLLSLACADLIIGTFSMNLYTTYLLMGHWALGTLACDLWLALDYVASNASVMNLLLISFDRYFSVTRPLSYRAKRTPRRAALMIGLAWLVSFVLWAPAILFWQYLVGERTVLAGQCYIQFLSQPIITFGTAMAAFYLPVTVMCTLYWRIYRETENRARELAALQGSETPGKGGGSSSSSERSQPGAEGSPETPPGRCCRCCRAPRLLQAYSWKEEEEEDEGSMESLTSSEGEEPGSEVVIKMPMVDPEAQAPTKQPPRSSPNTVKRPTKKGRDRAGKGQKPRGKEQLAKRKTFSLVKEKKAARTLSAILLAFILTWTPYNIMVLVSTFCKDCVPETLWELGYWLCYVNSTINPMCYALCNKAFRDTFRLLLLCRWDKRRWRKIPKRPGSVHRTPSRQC
Description: On the day of experiment, cells were fully confluent.
To evaluate selectivity for a subtype of mAChR, in particular the M1 mAChR vs. M3 and MS mAChR, the assays were calibrated using ligands that have a combined activity, e.g. M1 agonistic and M3 antagonistic or M1 agonistic and MS antagonistic profiles, respectively. This can eliminate effects due to different receptor reserves in cell-based assays.

M1 mAChR [2] = molecular target: T1, M1 mAChR; assay: αAPPs secretion in CHO cells double transfected with human APP695 and human M1 mAChR; type: cell-based; settings: doubly-transfected CHO cells; AF710B at 0.01 μM, AF710 at 0.1 μM, AF710A at 1 μM
Method: α-APPs Secretion studies following incubation with the tested compounds were performed as described in Haring, et al. J. Neurochem., 1998, 71:2094-103. […] A day later, cells were washed twice with serum free media, and treated with the test compound at various concentrations ranging from 0.1 nM to 100 μM. […] After 1 hour the conditioned medium was collected to cold Eppendorf tubes, which included a protease inhibitor cocktail (0.1 mM phenylmethylsulphonyl fluoride (PMSF); 5 μg/ml leupeptin; 5 μg/ml pepstatin and 5 units/ml aprotinin) for determining αAPPs release. The protein content of each sample was concentrated using Centricon tubes (Amicon, Beverly, Mass.). […] CHO cells double transfected with human APP695 and M1 mAChR APPs bands were probed using anti-amyloid beta protein (1:1000, monoclonal 6E10 antibody, MAB1560, Chemicon) and peroxidase-linked rabbit anti mouse IgG (1:5,000; Jackson Immuno Research, PA). PC12 cells stably transfected with M1 mAChR APPs bands were probed using the anti-Alzheimer precursor protein A4 (1:4,000; monoclonal 22C11 antibody, Boehringer Mannheim) and the peroxidase-linked rabbit anti mouse IgG (1:20,000; Jackson Immuno Research, PA). Following extensive washout, the membranes were treated with Western Lightning Chemiluminescence Reagent Plus (PerkinElmer Life Sciences, MA) followed by exposure to SuperRX film (Fuji Medical X-ray film, Tokyo, Japan). Quantitative determination of the total APPs bands was performed by Scion Image program (NIH, Bethesda, USA). Samples of control and CCh were assayed in parallel and thus enabled compilation of data from separate experiments.

rats = assay: Passive avoidance, MK-801-induced impairment in rats; type: in vivo, rat; settings: sc, retention 24 h later
Description: (§1) Trihexyphenidyl is a selective M1 muscarinic antagonist that crosses the blood brain barrier and induces memory and learning impairments (Bymaster et al., J Pharmacol Exp. Ther. 267: 16-24, 1993; Roldan et al., Neurosci. Lett. 230: 93-96, 1997; Kimura et al., Brain Res. 834: 6-12, 1999). […] Naive Wistar rats were used in the experiments below. The passive avoidance (PA) task consists of a training (acquisition) phase and a retention phase. In the training procedure each rat was individually placed in the small illuminated compartment and after 60 s. of familiarization/adaptation, the door to the large compartment was opened and the latency to enter was measured (Initial Latency) Immediately following entry into the dark compartment, the door was closed and inescapable foot shock (0.6 mA for 3 s) was delivered through the grid floor. […] After the acquisition trial the rat was returned to its home cage. Retention of the passive avoidance task was measured 24 h later, by again placing the rat in the light compartment and after a 60 s adaptation interval, the door was opened and the latency to re-enter the dark compartment was measured. […] Two separate experiments were conducted. […] In both experiments the rats were divided into 2 groups. One main group was treated with trihexyphenidyl (5 mg/kg, s.c) and the second main group was treated with vehicle (DDW-1 ml/kg, s.c.), 30 min before the shock.
MK-801 is an NMDA antagonist that induces cognitive behavioral impairments in rodents. […] In the first experiment (dose-finding study of MK-801) rats were divided into 4 groups. Three groups (N=27) were treated with MK-801 (50, 80 or 100 μg/kg, s.c) and the fourth group (N=10) was treated with vehicle (saline-1 ml/kg, s.c.), 30 min before the shock. […] One group (N=80) was treated with MK-801 (80 μg/kg, s.c) and the second group (N=59) was treated with the vehicle (saline-1 ml/kg, s.c.).

PC12M1 cells = assay: Mitochondrial apoptosis pathway, Bax and Bcl-2 immunoreactivity in PC12M1 cells
Method: These cells were partially differentiated (2-3 days), as observed under microscope. […] The pellet (rich mitochondrial fraction) was re-suspended with 200 μl Ripa buffer and lysed by rapid passage through a syringe needle (23G) for five to six times. The lysate was then used for further evaluation.
Bands were probed using the Rabbit Bax antibody (1:1000, Cell signaling, Cat. No. 2772) and Rabbit Bcl-2 antibody (1:1000, Cell signaling, Cat. No. 2870) followed by anti rabbit IgG (H&L) HRP (1:5,000, Jackson Immuno Research, 111-035-144).

Wistar rats = assay: Passive avoidance, trihexyphenidyl-induced memory impairment in rats; type: in vivo, rat; settings: NE-100 1 mg/kg alone
Description: as §1
In a further extension of these studies, retention of the passive avoidance task was measured 72 h later, by again placing the rat in the light compartment and after a 60 s adaptation interval, the door was opened and the latency to re-enter the dark compartment was measured. A cutoff point of 600 s was used for retention latency. […] Rats were divided into 2 groups. One group (N=30) was treated with trihexyphenidyl (5 mg/kg, s.c) and the second group (N=29) was treated with vehicle (DDW-1 ml/kg, s.c.), 30 min before the shock.

CCCC(CCC)C(=O)N1CC2(CCN(C)CC2)SC1C (centres unmarked) [AF717, 1-(2,8-dimethyl-1-thia-3,8-diazaspiro[4.5]dec-3-yl)-2-propylpentan-1-one]
activity at 100 µM (M1 mAChR [1]): < 25%

CC1SC2(CCN(C)CC2)CN1C(=O)/C=C/c1c[nH]c2ccccc12 (centres unmarked) [AF727, (E)-1-(2,8-dimethyl-1-thia-3,8-diaza-spiro[4.5]dec-3-yl)-3-(1H-indol-3-yl)-propenone]
Kd (M1 mAChR [1]): 8.7 µM

CCCC(CCC)C(=O)N1CC(C)OC12CCN(C)CC2 (centres unmarked) [AF713, 1-(2,8-dimethyl-1-oxa-4,8-diaza-spiro[4.5]dec-4-yl)-2-propyl-pentan-1-one]
Kd (M1 mAChR [1]): 113 µM

CC1CN(C(=O)CCc2c[nH]c3ccccc23)C2(CCN(C)CC2)O1 (centres unmarked) [AF706, 1-(2,8-dimethyl-1-oxa-4,8-diazaspiro[4.5]dec-4-yl)-3-(1H-indol-3-yl)-propan-1-one]
Kd (M1 mAChR [1]): 39.7 µM

C[C@H]1SC2(CCN(C)CC2)CN1C(=O)CCc1c[nH]c2ccccc12 (single isomer, unassigned) [AF710A]
maximal αAPPs secretion in comparison to untreated control cells (M1 mAChR [2]): 125%
Kd (M1 mAChR [1]): 31 µM

CC1OC2(CCN(C)CC2)C2C1N2C(=O)CCc1c[nH]c2ccccc12 (centres unmarked) [AF718C, 1′,4-dimethyl-6-(3-indolpropionyl)-spiro-(3-oxa-6-aza-bicyclo[3.1.0]-hexane-2,4′-piperidine)]
M1 agonist at 100 μM vs. carbachol (full muscarinic agonist, 100%) (M1 mAChR [1]): 43%

CC1OC2(CCN(C)CC2)CC1NC(=O)CCc1c[nH]c2ccccc12 (single isomer, unassigned) [AF730, N-(2,8-dimethyl-1-oxa-8-aza-spiro[4.5]dec-3-yl)-3-(1H-indol-3-yl)-propionamide]
M1 agonist at 100 μM vs. carbachol (full muscarinic agonist, 100%) (M1 mAChR [1]): 40%

C[C@]12N[C@H](Cc3ccccc31)c1ccccc12 [MK-801, reference compound]
retention performance, dose-finding (rats; 50 μg/kg): ineffective
retention performance, dose-finding (rats; 80 and 100 μg/kg): impaired retention performance

CC1CN(S(=O)(=O)c2ccc(F)cc2)C2(CCN(C)CC2)O1 (centres unmarked) [AF714, 4-(4-fluoro-benzenesulfonyl)-2,8-dimethyl-1-oxa-4,8-diaza-spiro[4.5]-decane]
Kd (M1 mAChR [1]): 9.7 µM

CCCC(CCC)C(=O)N1CC2(CCN(C)CC2)OC1C (centres unmarked) [AF712, 1-(2,8-dimethyl-1-oxa-3,8-diaza-spiro[4.5]dec-3-yl)-2-propyl-pentan-1-one]
Kd (M1 mAChR [1]): 22.6 µM

CC1SC2(CCN(C)CC2)CN1C(=O)CCCc1c[nH]c2ccccc12 (centres unmarked) [AF725]
activity at 100 µM (M1 mAChR [1]): < 50%

CC1OC2(CCN(C)CC2)CN1C(=O)CCc1c[nH]c2ccccc12 (single isomer, unassigned) [AF711B]
Kd (M1 mAChR [1]): 42 µM

CC1SC2(CCN(C)CC2)CN1C(=O)Cc1c[nH]c2ccccc12 (centres unmarked) [AF726]
Kd (M1 mAChR [1]): 84.7 µM

CC1OC2(CCN(C)CC2)C2C1N2S(=O)(=O)c1ccc(F)cc1 (centres unmarked) [AF721, 1′,4-dimethyl-6-[3-(4-fluorobenzenesulfonyl)]-spiro-(3-oxa-6-aza-bicyclo[3.1.0]hexane-2,4′-piperidine)]
M1 agonist at 100 μM vs. carbachol (full muscarinic agonist, 100%) (M1 mAChR [1]): 13%

CC1SC2(CCN(C)CC2)CN1S(=O)(=O)c1ccc(F)cc1 (centres unmarked) [AF716, 3-(4-fluorobenzenesulfonyl)-2,8-dimethyl-1-thia-3,8-diazaspiro[4.5]-decane]
Kd (M1 mAChR [1]): 7.7 µM

CC1OC2(CCN(C)CC2)CN1C(=O)CCc1c[nH]c2ccccc12 (single isomer, unassigned) [AF711A]
M1 agonist at 100 μM vs. carbachol (full muscarinic agonist, 100%) (M1 mAChR [1]): 45%

C[N+](C)(C)CCOC(N)=O [carbachol, reference compound]
Aβ 25-35 induced neurotoxicity expressed as Bax/Bcl2 (PC12M1 cells; PC12M1 cells, 1 μM): 29%±11

CC1OC2(CCN(C)CC2)CN1S(=O)(=O)c1ccc(F)cc1 (centres unmarked) [AF715, 3-(4-fluorobenzenesulfonyl)-2,8-dimethyl-1-oxa-3,8-diazaspiro[4.5]-decane]
Kd (M1 mAChR [1]): 2.5 µM

CCCN(CCC)CCc1ccc(OC)c(OCCc2ccccc2)c1 [NE-100, reference compound]
inducing deficits in the PA task, alone (Wistar rats): not significantly effective
effect of sigma-1 antagonist on AF710B-mediated decrease of Bax elevation (PC12M1 cells; NGF deprivation): blocked these AF710B-mediated effects

CC1OC2(CCN(C)CC2)CC1NC(=O)CCc1c[nH]c2ccccc12 (single isomer, unassigned) [AF730 II]
M1 agonist at 100 μM vs. carbachol (full muscarinic agonist, 100%) (M1 mAChR [1]): 36%

CCC(=O)N1CC2(CCN(C)CC2)SC1C (centres unmarked) [AF724, 1-(2,8-dimethyl-1-thia-3,8-diaza-spiro[4.5]dec-3-yl)-propan-1-one]
activity at 100 µM (M1 mAChR [1]): < 50%

CC1SC2(CCN(C)CC2)CN1C(=O)c1cc(C(C)(C)C)c(O)c(C(C)(C)C)c1 (centres unmarked) [AF723, (3,5-di-tert-butyl-4-hydroxy-phenyl)-(2,8-dimethyl-1-thia-3,8-diaza-spiro[4.5]dec-3-yl)-methanone]
activity at 100 µM (M1 mAChR [1]): < 50%

CC1OC2(CCN(C)CC2)C/C1=N\OC(=O)CCc1c[nH]c2ccccc12 (centres unmarked) [AF733, (3E)-2,8-dimethyl-1-oxa-8-azaspiro[4.5]decan-3-one-O—[3-(1H-indol-3-yl)propanoyl]oxime]
M1 agonist at 100 μM vs. carbachol (full muscarinic agonist, 100%) (M1 mAChR [1]): 90%

From patent US9034891B2, “Bicyclic heterocyclic spiro compounds” (ISRAEL INSTITUTE FOR BIOLOGICAL RESEARCH, priority 2009, dated 2015)
